Measured values published in patent publication US20250003877A1, “Silyl Bridged Dyes” (priority 2021, published 2025).
Where two headings read alike, the source gives them in different places.

Columns and labels:
[1] = for ϕ (quantum yield): pH 7.4; for Brightness (ϕ × ε): ϕ in PBS × ε in EtOH/0.1% TFA
[2] = KL-Z lactone-zwitterion equilibrium; type: physicochemical; conditions: 1:1 v/v dioxane:water
[3] = tested on: HaloTag®-GFP-expressing HeLa cells; assay: No-wash live cell imaging of HaloTag-expressing cells with a Si-bridge dye; type: cell-based; conditions: 200 nM dye, 15 min, 37° C., HeLa transfected with pHaloTag®-EGFP
Description: HeLa cells were seeded in 35 mm glass bottom dishes (Cellvis, catalog no. D35-28-O—N), and transfected with pHaloTag®-EGFP (Addgene #86629). Transient transfections were performed using Lipofectamine 2000 (Invitrogen, catalog no. 1168019) following the manufacturer's instructions. HeLa cell labeling and confocal imaging were performed 24 hr after transfection.
Labeling with JF646-HaloTag® ligand (Promega) and new dyes containing HaloTag® ligands were performed following the manufacturer's instructions. Briefly, cells were incubated with 200 nM dye in DMEM for 15 min at 37° C. Subsequently, images were obtained on a Leica SP-8 Confocal Microscope (SCOPE core facility, UMass Medical School), using a 40×1.15 Oil DIC objective. EGFP was excited with the Argon (488 nm) laser at a 15% intensity and detected through a 505-530 band pass filter and a pinhole set to 53.12 μm. Dyes fluorescing in the Cy5 channel were excited with the HeNe (633 nm) laser at a 15% intensity and detected through a 640-615 band pass filter and […] pinhole. Image analysis was performed using Leica LAS X SP8 software and ImageJ software.

[4] = tested on: nucleus in live HeLa cells; assay: No-wash live cell imaging of the nucleus with a Si-bridge dye; type: cell-based; conditions: confocal, Cy5 channel
Description: HeLa cells were cultured in Dulbecco's modified Eagle medium (DMEM, from GIBCO, catalog no. 11995065) supplemented with 10% fetal bovine serum (FBS) (GIBCO, catalog no. 10437028) and 1% penicillin-streptomycin (Sigma) at 37° C. in a 5% CO2 incubator. For imaging, cells were seeded in 35 mm glass bottom dishes (Cellvis, catalog no. D35-28-O—N). […] Dyes fluorescing in the Cy5 channel were excited with the HeNe (633 nm) laser at a 15% intensity and detected through a 640-615 band pass filter, and EGFP was excited with the Argon (488 nm) laser. Image analysis was performed using Leica LAS X SP8 software and ImageJ software.

[5] = tested on: hairpin DNA oligonucleotide (hpDNA); assay: Photophysical properties after 2 h treatment with hairpin DNA (hpDNA); type: physicochemical; conditions: for Brightness (ε × ϕ) / ε (M^−1 cm^−1) / λem (nm) / λex (nm) / ϕ: +30 μM hpDNA, 2 h; for brightness: in the presence of 30 μM hpDNA
Description: Absorption and fluorescence spectra were measured on a Horiba Duetta fluorescence and absorbance spectrometer in quartz cuvettes (Starna Cells, catalog #3-Q-10). Extinction coefficients were calculated from plots of absorption versus concentration. Quantum yields were measured on a Hamamatsu Quantaurus QY C-11347-11 absolute quantum yield integrating sphere spectrometer at absorption values of <0.1 in side-arm quartz cuvettes (Hamamatsu cat #A10095-02). All measurements were performed in PBS (9.0 g/l NaCl, 0.795 g/l Na2HPO4, 0.144 g/l KH2PO4, pH 7.4, Corning cat #21-040-CV), ethanol, or 0.1% TFA/ethanol and prepared from stock solutions of dyes in DMSO, with final DMSO <1%. […] Selected KLZ values were determined in 1:1 v/v dioxane:water as previously described.
Spirolactonizable Si-rhodamines are particularly valuable for live cell imaging. They typically exist in a nonfluorescent, neutral cell-permeable form that can convert to a highly fluorescent form when bound to particular targets, such as DNA or the protein HaloTag®. This fluorogenic response occurs when the nonfluorescent spirolactone ring opens, generating a zwitterionic dye (Scheme 12). To date, all examples of fluorogenic Si-rhodamine dyes have been modified with targeting groups directly on the pendant phenyl ring that forms the spirolactone. It is not obvious whether this same fluorogenic behavior would also occur with dyes that are modified with targeting groups on the more distal silyl group. SiR-DNA (Spirochrome) is a commercially-available Si-rhodamine dye with the DNA-targeting ligand Hoechst 33258 attached to the pendant phenyl ring (Schemes 13A-C), allowing specific labeling of the nucleus in live cells. Therefore, two Hoechst 33258-modified Si-Bridge isomers were synthesized via direct reaction of the phenol of Hoechst 33258 with the isomeric Si-iodopropyl dyes compounds 047 and 048 (Scheme 6), and then assessed their ability to label the nucleus in live HeLa cells compared to SiR-DNA (FIGS. 2A-2C). […] To gain more insight into the molecular basis for this difference, the photophysical properties of compounds 061 and 062 were evaluated in vitro in the presence and absence of a hairpin DNA oligonucleotide (hpDNA) (Table 4). Like SiR-DNA, these dyes are quenched and virtually nonfluorescent in PBS, with quantum yields <0.02 and brightness of <130 M^−1 cm^−1.

[6] = spirolactone dyes, table title says PBS, text (b560-b564) says maximal ε when ring-opened in EtOH/0.1% TFA

Structure (SMILES): C[Si]1(C)c2cc(N3CCC3)ccc2C2(OC(=O)c3ccccc32)c2ccc(N3CCC3)cc21 [Compound 031, 3,7-Di(azetidin-1-yl)-5,5-dimethyl-3′H,5H-spiro[dibenzo[b,e]siline-10,1′-isobenzofuran]-3′-one, reference compound]
- Em (nm) ([1]; PBS): 664 nm
- Ex (nm) ([1]; PBS): 646 nm
- ϕ (quantum yield) ([1]; PBS): 0.45
- ε (M^−1 cm^−1) [1, 6]: 156,000 M^−1 cm^−1
- Brightness (ϕ × ε) ([1]; spirolactone dyes): 70,200
- KL-Z lactone-zwitterion equilibrium value [2]: 0.0034

Structure (SMILES): CN(C)c1ccc2c(c1)[Si](C)(C)c1cc(N(C)C)ccc1C21OC(=O)c2ccccc21 [Compound 032, 3,7-Bis(dimethylamino)-5,5-dimethyl-3′H,5H-spiro[dibenzo[b,e]siline-10,1′-isobenzofuran]-3′-one, reference compound]
- Em (nm) ([1]; PBS): 667 nm
- Ex (nm) ([1]; PBS): 648 nm
- ϕ (quantum yield) ([1]; PBS): 0.38
- ε (M^−1 cm^−1) [1, 6]: 130,000 M^−1 cm^−1
- Brightness (ϕ × ε) ([1]; spirolactone dyes): 49,400
- KL-Z lactone-zwitterion equilibrium value [2]: 0.002

Structure (SMILES): C=C[Si]1(C=C)c2cc(N3CCC3)ccc2C2(OC(=O)c3ccccc32)c2ccc(N3CCC3)cc21 [Compound 034, 3,7-Di(azetidin-1-yl)-5,5-divinyl-3′H,5H-spiro[dibenzo[b,e]siline-10,1′-isobenzofuran]-3′-one]
- extinction coefficient (maximum) in EtOH/0.1% TFA ([1]; EtOH/0.1% TFA): 80,000 M−1 cm−1
- Em (nm) ([1]; SDS): 675 nm
- Ex (nm) ([1]; SDS): 656 nm
- extinction coefficient in anhydrous EtOH/0.1% TFA ([1]; anhydrous EtOH/0.1% TFA): ~144 000 M−1 cm-1
- ε (M^−1 cm^−1) [1, 6]: 80,000 M^−1 cm^−1
- KL-Z lactone-zwitterion equilibrium value [2]: 0.00125

Structure (SMILES): CN(C)c1ccc2c(c1)[Si@](C)(CCCSCCOCCOCCOCCOCCCCCCCl)c1cc(N(C)C)ccc1[C@]21OC(=O)c2ccccc21 [Compound 050, (5s,10s)-5-(22-Chloro-7,10,13,16-tetraoxa-4-thiadocosyl)-3,7-bis(dimethylamino)-5-methyl-3′H,5H-spiro[dibenzo[b,e]siline-10,1′-isobenzofuran]-3′-one]
- fluorescence contrast / background / localisation in cells [3]: high background
- labeling of HaloTag®-expressing cells [3]: did not label HaloTag®-expressing cells

Structure (SMILES): CN(C)c1ccc2c(c1)[Si@](C)(CCCSCCOCCOCCOCCOCCCCCCCl)c1cc(N(C)C)ccc1[C@@]21OC(=O)c2ccccc21 [Compound 051, (5r,10r)-5-(22-Chloro-7,10,13,16-tetraoxa-4-thiadocosyl)-3,7-bis(dimethylamino)-5-methyl-3′H,5H-spiro[dibenzo[b,e]siline-10,1′-isobenzofuran]-3′-one]
- fluorescence contrast / background / localisation in cells [3]: significant background
- labeling of HaloTag®-expressing cells [3]: labeled HaloTag®-expressing cells

Structure (SMILES): CN1CCN(c2ccc3[nH]c(-c4ccc5[nH]c(-c6ccc(OCCC[Si@]7(C)c8cc(N(C)C)ccc8[C@]8(OC(=O)c9ccccc98)c8ccc(N(C)C)cc87)cc6)nc5c4)nc3c2)CC1 [Compound 061, (5s,10s)-3,7-Bis(dimethylamino)-5-methyl-5-(3-(4-(5-(4-methylpiperazin-1-yl)-1H,1′H-[2,5′-bibenzo[d]imidazol]-2′-yl)phenoxy)propyl)-3′H,5H-spiro[dibenzo[b,e]siline-10,1′-isobenzofuran]-3′-one]
- labeling of the nucleus in live HeLa cells [4]: no labeling of the nucleus
- Brightness (ε × ϕ) ([1]; 0.1% SDS/PBS, 2 h incubation): 10,965
- ε (M^−1 cm^−1) ([1]; 0.1% SDS/PBS, 2 h incubation): 25,500 M^−1cm^−1
- λem (nm) ([1]; 0.1% SDS/PBS, 2 h incubation): 668 nm
- λex (nm) ([1]; 0.1% SDS/PBS, 2 h incubation): 650 nm
- ϕ ([1]; 0.1% SDS/PBS, 2 h incubation): 0.43
- Brightness (ε × ϕ) ([1]; Hoechst probe in PBS): 130
- ε (M^−1 cm^−1) ([1]; Hoechst probe in PBS): 6,500 M^−1cm^−1
- λex (nm) ([1]; Hoechst probe in PBS): 660 nm
- ϕ ([1]; Hoechst probe in PBS): 0.02
- Brightness (ε × ϕ) [5]: 550
- ε (M^−1 cm^−1) [5]: 5,500 M^−1cm^−1
- λem (nm) [5]: 672 nm
- λex (nm) [5]: 658 nm
- ϕ [5]: 0.10
- brightness [5]: 550 M⁻¹ cm⁻¹

Structure (SMILES): CN1CCN(c2ccc3[nH]c(-c4ccc5[nH]c(-c6ccc(OCCC[Si@]7(C)c8cc(N(C)C)ccc8[C@@]8(OC(=O)c9ccccc98)c8ccc(N(C)C)cc87)cc6)nc5c4)nc3c2)CC1 [Compound 062, (5r,10r)-3,7-Bis(dimethylamino)-5-methyl-5-(3-(4-(5-(4-methylpiperazin-1-yl)-1H,1′H-[2,5′-bibenzo[d]imidazol]-2′-yl)phenoxy)propyl)-3′H,5H-spiro[dibenzo[b,e]siline-10,1′-isobenzofuran]-3′-one]
- labeling of the nucleus in live HeLa cells [4]: highly fluorogenic, labeling only the nucleus in live cells
- Brightness (ε × ϕ) ([1]; 0.1% SDS/PBS, 2 h incubation): 64,770
- ε (M^−1 cm^−1) ([1]; 0.1% SDS/PBS, 2 h incubation): 127,000 M^−1cm^−1
- λem (nm) ([1]; 0.1% SDS/PBS, 2 h incubation): 670 nm
- λex (nm) ([1]; 0.1% SDS/PBS, 2 h incubation): 649 nm
- ϕ ([1]; 0.1% SDS/PBS, 2 h incubation): 0.51
- Brightness (ε × ϕ) ([1]; Hoechst probe in PBS): 90
- ε (M^−1 cm^−1) ([1]; Hoechst probe in PBS): 10,000 M^−1cm^−1
- λex (nm) ([1]; Hoechst probe in PBS): 663 nm
- Brightness (ε × ϕ) [5]: 10,400
- ε (M^−1 cm^−1) [5]: 26,000 M^−1cm^−1
- λem (nm) [5]: 670 nm
- λex (nm) [5]: 653 nm
- ϕ [5]: 0.40
- brightness [5]: 10 400 M^−1 cm^−1
- extinction coefficient ([5]; in the presence of 30 mM hpDNA): 26 000 M^−1 cm^−1
- quantum yield ([5]; in the presence of 30 mM hpDNA): 0.40

Structure (SMILES): C[Si]1(C)c2cc(N3CCC3)ccc2C2(OC(=O)c3ccc(C(=O)NCCOCCOCCCCCCCl)cc32)c2ccc(N3CCC3)cc21 [JF646-HaloTag® ligand]
- fluorescence contrast / background / localisation in cells [3]: high contrast images
